Assay results as given in patent US4542169A, “Biomedical devices containing isothiazolones to control bacteria growth” (Rohm and Haas Company, priority 1983, dated 1985).
Converted amounts (≈) assume the structure as drawn.

Key:
[1] = tested on: Escherichia coli; test: Minimum inhibitory concentration, bacteriostatic activity; type: cell-based; details: Table III: Active Ingredient MIC
[2] = tested on: Pseudomonas aeruginosa; test: as above; type: cell-based; details: Table III: Active Ingredient MIC
[3] = tested on: Staphylococcus aureus; test: as above; type: cell-based; details: Table III: Active Ingredient MIC
[4] = tested on: Candida albicans (yeast); test: Minimum inhibitory concentration, fungistatic activity; type: cell-based; details: Table III: Active Ingredient MIC
[5] = tested on: Aspergillus niger; test: as above; type: cell-based; details: Table III: Active Ingredient MIC
[6] = tested on: Aureobasidium pullulans; test: as above; type: cell-based; details: Table III: Active Ingredient MIC
[7] = Solubility in H2O; type: physicochemical; details: water
[8] = tested on: Echerichia coli (E.c.); test: Zone of inhibition, polyvinyl chloride film discs on inoculated agar; type: cell-based; details: PVC film
Procedure: (§1) In a two-liter, three-necked, round-bottom, flask equipped with a mechanical stirrer was placed 100 g of polyvinyl chloride, 590 g of reagent grade tetrahydrofuran, and 40.0 g of dioctylphthalate. This was stirred with gentle heating (35°-40° C.) for two hours to completely dissolve the polyvinyl chloride. Then, a barium/calcium salt of a fatty acid (3.5 g), a phosphite chelating agent (1.5 g), stearic Acid (0.25 g) and epoxidized soy bean oil (7.5 g), were mixed with 21 g of tetrahydrofuran and added to the polyvinyl chloride solution. After stirring at room temperature for 30 minutes, the solution was ready for use.
(§2) Films containing the isothiazolones were cast by first preparing a 0.5 weight percent polyvinyl chloride solution by adding the isothiazolone to the polyvinyl chloride solution. Then, portions of the 0.5% solution were diluted to 0.1 and 0.05%. The films were drawn down on 12"×12" glass plates using a 50 mil-3" wide coating bar and the films were allowed to air dry for 48 hours.
(§3) The films were cut into 1.25 cm discs and placed in agar plates inoculated with Staphlococcus aureus (S.a) or Echerichia coli (E.c.).

[9] = tested on: Staphlococcus aureus (S.a); test: as above; type: cell-based; details: PVC film
Procedure: as §1, §2, §3

[10] = tested on: S.a.; test: Zone of inhibition, silicone rubber film discs on inoculated agar; type: cell-based, Staphlococcus aureus; details: for Zones: Silicone; for Zones / Zone of Inhibition: S.a.; for Zone of Inhibition: silicone rubber film
Excerpt: as §3
(§4) The films were cut into discs and tested as in example one against S.a. and E.c.

[11] = tested on: E.c.; test: as above; type: cell-based, Echerichia coli; details: for Zones: Silicone; for Zone of Inhibition: silicone rubber film
Excerpt: as §3, §4

[12] = tested on: Pseudomonas aeruginosa (P.a.); test: Zone of inhibition, polyvinyl chloride (vinyl) film discs; type: cell-based; details: vinyl film
Procedure: as §1, §3
Discs were tested against Pseudomonas aeruginosa (P.a.). The 1.0% films gave a slight zone of inhibition while the 5.0% film gave a 1 mm zone of inhibition.

[13] = tested on: Aspergillis niger (A.n.); test: Zone of inhibition, polyvinyl chloride film; type: cell-based; details: PVC film
[14] = tested on: Aerobasidium pullulans (A.p); test: Zone of inhibition, polyvinyl chloride film; type: cell-based; details: PVC film
[15] = tested on: Aerobasidium pullulans (A.p); test: Growth of fungus on polyvinyl chloride film; type: cell-based; set-up: key: 0: zero (no growth); 5: five (heavy growth); details: PVC film
Procedure: as §1, §2
(§5) In addition to zones of inhibition, the films were observed by growth of fungus on the film and rated from zero (no growth) to five (heavy growth).

[16] = tested on: Aspergillis niger (A.n.); test: Growth of fungus on polyvinyl chloride film; type: cell-based; set-up: key: 0: zero (no growth); 5: five (heavy growth); details: PVC film
Procedure: as §1, §2, §5

[17] = tested on: P.a.; test: Zone of inhibition, silicone film; type: cell-based, Pseudomonas aeruginosa
[18] = tested on: sessile colonization by bacteria or fungi; test: Implanted silicone rubber urinary catheters in dogs, growth after one week; type: in vivo; details: silicone catheter; for Agar culture / Visual Examination: one week
Excerpt: These are inserted into large male dogs held in restraining harnesses. The catheters are examined for visible growth and cultured onto agar over a period of one week.

[19] = tested on: sessile colonization; test: Implanted polyvinyl chloride coated pacemakers in dogs, growth after one month; type: in vivo; details: for Agar culture / Visual Observation: PVC-coated pacemaker, one month
Excerpt: The devices are inserted into dogs and allowed to remain without electrical activation for a period of one month. The devices are then removed and examined visually and by agar cultures from the surface.

[20] = tested on: fungi; test: Observation of incubated plates (antibiotics vs Compound 1): fungal overgrowth; type: cell-based; details: as the plates were allowed to incubate
[21] = tested on: resistant bacterial colonies; details: with time

## O=c1c(Cl)c(Cl)sn1C1CCCCC1 [Compound 1, 4,5-Dichloro-N--cyclohexyl-isothiazolin-3-one]
[1]
  MIC: 16 µg/mL (≈ 63.5 µM)
[2]
  MIC: 62 µg/mL (≈ 246 µM)
[3]
  MIC: 10 µg/mL (≈ 39.7 µM)
[4]
  MIC: 0.5 µg/mL (≈ 1.98 µM)
[5]
  MIC: 0.5 µg/mL (≈ 1.98 µM)
[6]
  MIC: 0.5 µg/mL (≈ 1.98 µM)
[7]
  solubility: 91 µg/mL (≈ 361 µM)
[8]; 0.05%
  Zone of Inhibition: 0.8 mm
[8]; 0.1%
  Zone of Inhibition: 1.8 mm
[8]; 0.5%
  Zone of Inhibition: 4.8 mm
[9]; 0.05%
  Zone of Inhibition: 1.8 mm
[9]; 0.1%
  Zone of Inhibition: 4.3 mm
[10]; PVC and silicone films, Table E
  bacteriocide activity compared with the best commercial antibiotics: essential equivalency
[10]; 1.0%
  Zones: 20.3 mm
[10]; 5.0%
  Zones: 20.3 mm
[10]; .20%
  Zones: 17.8 mm
[10]; Conc. 10
  Zone of Inhibition: 0.8 mm
[10]; Conc. 100
  Zone of Inhibition: 6.8 mm
[10]; Conc. 1000
  Zone of Inhibition: 16.3 mm
[11]; 1.0%
  Zones: 16.3 mm
[11]; 5.0%
  Zones: 16.3 mm
[11]; .20%
  Zones: 14.3 mm
[11]; Conc. 10
  Zone of Inhibition: 0.1 mm
[11]; Conc. 100
  Zone of Inhibition: 5.5 mm
[11]; Conc. 1000
  Zone of Inhibition: 13.0 mm
[12]; 1.0% by weight
  Zone of Inhibition: slight
[12]; 5.0% by weight
  Zone of Inhibition: 1 mm
[13]; 0.05%
  Zone of Inhibition: 0 mm
[13]; 0.1%
  Zone of Inhibition: 0 mm
[13]; 0.5%
  Zone of Inhibition: 5.3 mm
[14]; 0.05%
  Zone of Inhibition: 0 mm
[14]; 0.1%
  Zone of Inhibition: 0 mm
[14]; 0.5%
  Zone of Inhibition: 5.3 mm
[15]; 0.05%
  Growth on Film: 0
[15]; 0.1%
  Growth on Film: 0
[15]; 0.5%
  Growth on Film: 0
[16]; 0.05%
  Growth on Film: 1
[16]; 0.1%
  Growth on Film: 0
[16]; 0.5%
  Growth on Film: 0
[17]; 1.0%
  Zones: 3.3 mm
[17]; 5.0%
  Zones: 3.3 mm
[17]; .20%
  Zones: 0.8 mm
[18]
  efficacy in resisting sessile colonization: resisting sessile colonization by bacteria or fungi
[18]; 0.05% by weight
  Agar culture: +2
  Visual Examination: slight slime
[18]; 0.1% by weight
  Agar culture: +1
  Visual Examination: clean
[18]; 0.5% by weight
  Agar culture: 0
  Visual Examination: clean
[18]; 1.0% by weight
  Agar culture: 0
  Visual Examination: clean
[19]; 0.05%
  Agar culture: +3
  Visual Observation: slime covered
[19]; 0.1%
  Agar culture: +1
  Visual Observation: slight slime layer
[19]; 0.5%
  Agar culture: trace
  Visual Observation: clean
[19]; 1.0%
  Agar culture: 0
  Visual Observation: clean
[19]; treated polyvinyl chloride, compared to untreated control
  efficacy in resisting sessile colonization: resisting sessile colonization, particularly as compared to untreated control
[20]
  overgrowth of plates by fungi: clean
[21]
  resistant bacterial colonies on plates: ability to suppress all species and not permit the growth of antibiotic resistant species

## CCCCCCCCn1sc(Cl)c(Cl)c1=O [Compound 5, 4,5-Dichloro-N--n-octyl-isothiazolin-3-one]
[1]
  MIC: 16 µg/mL (≈ 56.7 µM)
[2]
  MIC: 16 µg/mL (≈ 56.7 µM)
[3]
  MIC: 4 µg/mL (≈ 14.2 µM)
[4]
  MIC: 5 µg/mL (≈ 17.7 µM)
[5]
  MIC: 9 µg/mL (≈ 31.9 µM)
[6]
  MIC: 5 µg/mL (≈ 17.7 µM)
[8]; 0.05%
  Zone of Inhibition: 0 mm
[8]; 0.1%
  Zone of Inhibition: 0 mm
[8]; 0.5%
  Zone of Inhibition: 0 mm
[9]; 0.05%
  Zone of Inhibition: 0 mm
[9]; 0.1%
  Zone of Inhibition: 0.3 mm
[9]; 0.5%
  Zone of Inhibition: 3.3 mm
[10]; Conc. 10
  Zone of Inhibition: 0 mm
[10]; Conc. 100
  Zone of Inhibition: 1.8 mm
[10]; Conc. 1000
  Zone of Inhibition: 8.8 mm
[11]; Conc. 10
  Zone of Inhibition: 0 mm
[11]; Conc. 100
  Zone of Inhibition: 0 mm
[11]; Conc. 1000
  Zone of Inhibition: 0.8 mm
[13]; 0.05%
  Zone of Inhibition: 0 mm
[13]; 0.1%
  Zone of Inhibition: 0 mm
[13]; 0.5%
  Zone of Inhibition: 0 mm
[14]; 0.05%
  Zone of Inhibition: 0 mm
[14]; 0.1%
  Zone of Inhibition: 0 mm
[14]; 0.5%
  Zone of Inhibition: 0 mm
[15]; 0.05%
  Growth on Film: 5
[15]; 0.1%
  Growth on Film: 3
[15]; 0.5%
  Growth on Film: 1
[16]; 0.05%
  Growth on Film: 5
[16]; 0.1%
  Growth on Film: 3
[16]; 0.5%
  Growth on Film: 0
